pKd: −log10 of the molar value. Where “and” joins values, the source holds several entries; their conditions need not be identical. Equal entries are not always repeated. Structures can show the parent of a compound that is named as a salt.
Molecular target: T1, Nicastrin (NCT) (Homo sapiens, UniProt Q92542)
T1 construct: Full length human NCT was purified as described previously; 6×His (C); FLAG (C); made in house; host or cells: High Five insect cells (baculovirus made in Sf9)
Assay: surface plasmon resonance, Nicastrin immobilized
Format: binding
Settings: SPR, Biacore T100, CM5 chip; read-out: equilibrium dissociation constant (Kd), Nicastrin (NCT)
Protocol: A Biacore sensor Chip NTA that is designed to bind His-tagged proteins was used to immobilize γ-secretase. The SPR assay was performed in a running buffer (10 mM HEPES, 150 mM NaCl in the presence of 1% DMSO, pH 7.4). The purified His-tagged γ-secretase overexpressing human PS1, Flag-Pen-2, Aph-1a2-HA, and NCT-V5/His (see above) was diluted 6 times in DMSO-free running buffer. For each binding curve, the running buffer containing 500 μM NiCl2 was first injected to saturate the NTA chip. Then, His-tagged γ-secretase was injected and immobilized on the Ni^2+ -coated sensor chip. Compounds at the indicated concentrations were injected onto the surface of the sensor chip, and the corresponding binding spectrum was recorded. The sensor chip was regenerated with regeneration buffer (10 mM HEPES, 150 mM NaCl, 350 mM EDTA, pH 8.3). Purified human NCT (100 μg) was immobilized onto the flow cell of a CM5 sensor chip in 10 mM sodium acetate (pH 4.0) by using an amine coupling kit. The SPR assay was performed in HBS-P running buffer (10 mM HEPES, 150 mM NaCl and 0.005% surfactant P20 in the presence of 1% DMSO, pH 7.4). […] The Kd values were determined with Biacore evaluation 3.1 software. […]
Recombinant bacmids were used to transfect Sf9 cells to make the baculovirus, which was then used to infect High Five suspension insect cells (Invitrogen). […]

T1 sequence (Q92542 34-709): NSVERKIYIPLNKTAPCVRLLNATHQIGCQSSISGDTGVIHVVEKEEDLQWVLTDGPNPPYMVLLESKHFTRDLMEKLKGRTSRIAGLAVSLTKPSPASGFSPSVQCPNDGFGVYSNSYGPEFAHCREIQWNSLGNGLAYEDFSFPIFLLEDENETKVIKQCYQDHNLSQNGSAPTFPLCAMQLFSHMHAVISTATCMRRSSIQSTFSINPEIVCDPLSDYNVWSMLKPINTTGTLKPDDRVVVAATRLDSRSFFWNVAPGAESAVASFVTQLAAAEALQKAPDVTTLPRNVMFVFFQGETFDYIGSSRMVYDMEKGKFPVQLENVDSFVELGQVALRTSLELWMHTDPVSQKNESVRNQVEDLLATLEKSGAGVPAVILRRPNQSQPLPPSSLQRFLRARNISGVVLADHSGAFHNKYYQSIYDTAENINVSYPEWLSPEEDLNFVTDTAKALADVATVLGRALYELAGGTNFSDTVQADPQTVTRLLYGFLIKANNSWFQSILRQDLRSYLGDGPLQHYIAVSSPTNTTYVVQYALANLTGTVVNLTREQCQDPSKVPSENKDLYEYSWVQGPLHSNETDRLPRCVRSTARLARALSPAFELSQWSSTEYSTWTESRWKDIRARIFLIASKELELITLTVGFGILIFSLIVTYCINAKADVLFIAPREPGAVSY

## CC(C)[C@@]1(NC(=O)[C@@H]2C[C@@H]3c4cccc5[nH]cc(c45)C[C@H]3N(C)C2)O[C@@]2(O)[C@@H]3CCCN3C(=O)[C@H](Cc3ccccc3)N2C1=O [DHEC, Dihydroergocristine methanesulfonate salt]
  pKd: 5.01 and ~5.00 and 5.00

From paper PMC4644980, “The FDA-approved natural product dihydroergocristine reduces the production of the Alzheimer’s disease amyloid-β peptides” (Scientific Reports, 2015)
